SMILES strings stand for the structures.

T1 sequence (Q9QYN8 whole entry): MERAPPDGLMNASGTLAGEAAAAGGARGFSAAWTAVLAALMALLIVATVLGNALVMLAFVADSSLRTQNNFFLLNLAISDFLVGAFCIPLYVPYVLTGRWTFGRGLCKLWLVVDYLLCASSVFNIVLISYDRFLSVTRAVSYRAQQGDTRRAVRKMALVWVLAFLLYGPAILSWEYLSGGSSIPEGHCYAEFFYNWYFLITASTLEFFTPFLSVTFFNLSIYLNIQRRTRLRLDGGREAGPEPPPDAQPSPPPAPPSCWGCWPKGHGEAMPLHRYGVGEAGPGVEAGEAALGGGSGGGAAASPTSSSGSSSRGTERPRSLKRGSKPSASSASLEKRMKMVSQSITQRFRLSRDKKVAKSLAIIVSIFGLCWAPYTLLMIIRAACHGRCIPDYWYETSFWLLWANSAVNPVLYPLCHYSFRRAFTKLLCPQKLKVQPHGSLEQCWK

The test has as its target T1, histamine-3 receptors (H3 receptor) (Rattus norvegicus, UniProt Q9QYN8).
T1 construct: from tissue; host or cells: male Sprague-Dawley rat brain cortex membranes
Put plainly: (3H)-N-α-methylhistamine binding to rat cortical membranes (histamine-3 receptor ligands). Conditions: male Sprague-Dawley rat brain cortical membranes; (3H)-N-α-methylhistamine ~0.6 nM; 30 minutes at 25° C.; Cheng-Prusoff. As for the experimental part:
Briefly, male Sprague-Dawley rat brain cortices were homogenized (1 g tissue/10 mL buffer) in 50 mM Tris-HCl/5 mM EDTA containing protease inhibitor cocktail (Calbiochem) using a polytron set at 20,500 rpm. Homogenates were centrifuged for 20 minutes at 40,000×g. The supernatant was decanted, and pellets were weighed. The pellet was resuspended by polytron homogenization in 40 mL 50 mM Tris-HCl/5 mM EDTA with protease inhibitors and centrifuged for 20 minutes at 40,000×g. […] Rat cortical membranes (12 mg wet weight/tube) were incubated with (^3H)-N-α-methylhistamine (˜0.6 nM) with or without H3 receptor antagonists in a total incubation volume of 0.5 mL of 50 mM Tris-HCl/5 mM EDTA (pH 7.7). Test compounds were dissolved in DSMO to provide a 20 mM solution, serially diluted and then added to the incubation mixture prior to initiating the incubation assay by addition of the membranes. Thioperamide (3 μM) was used to determine nonspecific binding. Binding incubations were conducted for 30 minutes at 25° C. and terminated by addition of 2 mL of ice cold 50 mM Tris-HCl (pH 7.7) and filtration through 0.3% polyethylenimine-soaked Unifilter plates (Packard). These filters were washed 4 additional times with 2 mL of ice-cold 50 mM Tris-HCl and dried for 1 hour. Radioactivity was determined using liquid scintillation counting techniques. Results were analyzed by Hill transformation and Ki values were determined using the Cheng-Prusoff equation.
Turning to `Cc1cc(-c2ccc(C#N)cc2)cc2cc(CCN3CCC[C@H]3C)oc12` [Example 109, 4-(7-methyl-2-{2-[(2R)-2-methyl-1-pyrrolidinyl]ethyl}-1-benzofuran-5-yl)benzonitrile], the Ki was 10 nM.

On to `C[C@@H]1CCCN1CCc1cc2cc(-c3ccc(C#N)cc3)cc(F)c2o1` [Example 110, 4-(7-fluoro-2-{2-[(2R)-2-methyl-1-pyrrolidinyl]ethyl}-1-benzofuran-5-yl)benzonitrile], for which the affinity corresponds to a Ki of 6 nM.

Compound `C[C@@H]1CCCN1CCc1cc2cc(-c3ccc(C#N)c(F)c3)ccc2o1` [Example 111, 2-fluoro-4-(2-{2-[(2R)-2-methyl-1-pyrrolidinyl]ethyl}-1-benzofuran-5-yl)benzonitrile] came in with a Ki of 9 nM.

Compound `C[C@@H]1CCCN1CCc1cc2cc(-c3cccc(C#N)c3)ccc2o1` [Example 112, 3-(2-{2-[(2R)-2-methyl-1-pyrrolidinyl]ethyl}-1-benzofuran-5-yl)benzonitrile] had a Ki of 3 nM.

Turning to `C[C@@H]1CCCN1CCc1cc2cc(-c3ccc(F)cc3)ccc2o1` [Example 113, (2R)-1-{2-[5-(4-fluorophenyl)-1-benzofuran-2-yl]ethyl}-2-methylpyrrolidine], the Ki was 77 nM.

With `C[C@@H]1CCCN1CCc1cc2cc(-c3ccc(Cl)c(Cl)c3)ccc2o1` [Example 114, (2R)-1-{2-[5-(3,4-dichlorophenyl)-1-benzofuran-2-yl]ethyl}-2-methylpyrrolidine], the affinity corresponds to a Ki of 97 nM.

In turn, `Cc1ccccc1-c1ccc2oc(CCN3CCC[C@H]3C)cc2c1` [Example 115, (2R)-2-methyl-1-{2-[5-(2-methylphenyl)-1-benzofuran-2-yl]ethyl}pyrrolidine] returned a Ki of 33 nM.

With `Cc1cccc(-c2ccc3oc(CCN4CCC[C@H]4C)cc3c2)c1` [Example 116, (2R)-2-methyl-1-{2-[5-(3-methylphenyl)-1-benzofuran-2-yl]ethyl}pyrrolidine], the Ki stood at 30 nM.

`Cc1ccc(-c2ccc3oc(CCN4CCC[C@H]4C)cc3c2)cc1` [Example 117, (2R)-2-methyl-1-{2-[5-(4-methylphenyl)-1-benzofuran-2-yl]ethyl}pyrrolidine] came in with a Ki of 110 nM.

Regarding `COC(=O)c1ccc(-c2ccc3oc(CCN4CCC[C@H]4C)cc3c2)cc1` [Example 118, methyl 4-(2-{2-[(2R)-2-methyl-1-pyrrolidinyl]ethyl}-1-benzofuran-5-yl)benzoate], affinity was put at a Ki of 42 nM.

On to `COc1ccccc1-c1ccc2oc(CCN3CCC[C@H]3C)cc2c1` [Example 119, (2R)-1-{2-[5-(2-methoxyphenyl)-1-benzofuran-2-yl]ethyl}-2-methylpyrrolidine], for which affinity was put at a Ki of 66 nM.

In turn, `COc1cccc(-c2ccc3oc(CCN4CCC[C@H]4C)cc3c2)c1` [Example 120, (2R)-1-{2-[5-(3-methoxyphenyl)-1-benzofuran-2-yl]ethyl}-2-methylpyrrolidine] showed a Ki of 23 nM.

Compound `C[C@@H]1CCCN1CCc1cc2cc(-c3cccc(F)c3)ccc2o1` [Example 122, (2R)-1-{2-[5-(3-fluorophenyl)-1-benzofuran-2-yl]ethyl}-2-methylpyrrolidine] showed a Ki of 17 nM.

The compound `C[C@@H]1CCCN1CCc1cc2cc(-c3ccccc3Cl)ccc2o1` [Example 123, (2R)-1-{2-[5-(2-chlorophenyl)-1-benzofuran-2-yl]ethyl}-2-methylpyrrolidine] registered a Ki of 16 nM.

As to `C[C@@H]1CCCN1CCc1cc2cc(-c3cccc(Cl)c3)ccc2o1` [Example 124, (2R)-1-{2-[5-(3-chlorophenyl)-1-benzofuran-2-yl]ethyl}-2-methylpyrrolidine], the affinity corresponds to a Ki of 34 nM.

As for `CC1CCCN1CCc1cc2cc(-c3ccc(Cl)cc3)ccc2o1` (stereo not drawn) [Example 125, 1-{2-[5-(4-chlorophenyl)-benzofuran-2-yl]-ethyl}-2-methylpyrrolidine], the affinity corresponds to a Ki of 63 nM.

In the case of `C[C@@H]1CCCN1CCc1cc2cc(-c3cccc(C(F)(F)F)c3)ccc2o1` [Example 126, (2R)-2-methyl-1-(2-{5-[3-(trifluoromethyl)phenyl]-1-benzofuran-2-yl}ethyl)pyrrolidine], the Ki turned out to be 81 nM.

With `C[C@@H]1CCCN1CCc1cc2cc(-c3ccc(C(F)(F)F)cc3)ccc2o1` [Example 127, (2R)-2-methyl-1-(2-{5-[4-(trifluoromethyl)phenyl]-1-benzofuran-2-yl}ethyl)pyrrolidine], the Ki came to 120 nM.

Take `C[C@@H]1CCCN1CCc1cc2cc(-c3cccc(OC(F)(F)F)c3)ccc2o1` [Example 128, (2R)-2-methyl-1-(2-{5-[3-(trifluoromethoxy)phenyl]-1-benzofuran-2-yl}ethyl)pyrrolidine]: the Ki came to 110 nM.

In turn, `C[C@@H]1CCCN1CCc1cc2cc(-c3ccc(OC(F)(F)F)cc3)ccc2o1` [Example 129, (2R)-2-methyl-1-(2-{5-[4-(trifluoromethoxy)phenyl]-1-benzofuran-2-yl}ethyl)pyrrolidine] displayed a Ki of 150 nM.

For the compound `Cc1ccc(-c2ccc3oc(CCN4CCC[C@H]4C)cc3c2)cc1C` [Example 130, (2R)-1-{2-[5-(3,4-dimethylphenyl)-1-benzofuran-2-yl]ethyl}-2-methylpyrrolidine], the Ki came to 60 nM.

Regarding `C[C@@H]1CCCN1CCc1cc2cc(-c3cc(Cl)cc(Cl)c3)ccc2o1` [Example 131, (2R)-1-{2-[5-(3,5-dichlorophenyl)-1-benzofuran-2-yl]ethyl}-2-methylpyrrolidine], the Ki stood at 22 nM.

Turning to `Cc1cc(C)cc(-c2ccc3oc(CCN4CCC[C@H]4C)cc3c2)c1` [Example 132, (2R)-1-{2-[5-(3,5-dimethylphenyl)-1-benzofuran-2-yl]ethyl}-2-methylpyrrolidine], the affinity, expressed as Ki, was 19 nM.

`C[C@@H]1CCCN1CCc1cc2cc(-c3ccc(CO)cc3)ccc2o1` [Example 133, [4-(2-{2-[(2R)-2-methyl-1-pyrrolidinyl]ethyl}-1-benzofuran-5-yl)phenyl]methanol]: the Ki amounted to 6.4 nM.

Consider `C[C@@H]1CCCN1CCc1cc2cc(-c3cccnc3)ccc2o1` [Example 134, 3-(2-{2-[(2R)-2-methyl-1-pyrrolidinyl]ethyl}-1-benzofuran-5-yl)pyridine], for which affinity was put at a Ki of 3.2 nM.

Take `C[C@@H]1CCCN1CCc1cc2cc(C=Cc3ccc(F)cc3)ccc2o1` [Example 135, (2R)-1-(2-{5-[2-(4-fluorophenyl)vinyl]-1-benzofuran-2-yl}ethyl)-2-methylpyrrolidine]: the affinity corresponds to a Ki of 31 nM.

Compound `CC(=O)c1cccc(-c2ccc3oc(CCN4CCC[C@H]4C)cc3c2)c1` [Example 136, 1-[3-(2-{2-[(2R)-2-methyl-1-pyrrolidinyl]ethyl}-1-benzofuran-5-yl)phenyl]ethanone] came in with a Ki of 0.4 nM.

Take `CC(O)c1cccc(-c2ccc3oc(CCN4CCC[C@H]4C)cc3c2)c1` (stereo partly drawn) [Example 137, 1-[3-(2-{2-[(2R)-2-methyl-1-pyrrolidinyl]ethyl}-1-benzofuran-5-yl)phenyl]ethanol]: the Ki was 2.8 nM.

`C[C@@H]1CCCN1CCc1cc2cc(-c3cccc(C(C)(C)O)c3)ccc2o1` [Example 138, 2-[3-(2-{2-[(2R)-2-methyl-1-pyrrolidinyl]ethyl}-1-benzofuran-5-yl)phenyl]-2-propanol]: the Ki turned out to be 1.2 nM.

Consider `CC(=NO)c1cccc(-c2ccc3oc(CCN4CCC[C@H]4C)cc3c2)c1` [Example 139, 1-[3-(2-{2-[(2R)-2-methyl-1-pyrrolidinyl]ethyl}-1-benzofuran-5-yl)phenyl]ethanone oxime], for which affinity was put at a Ki of 3.1 nM.

`CON=C(C)c1cccc(-c2ccc3oc(CCN4CCC[C@H]4C)cc3c2)c1` [Example 140, 1-[3-(2-{2-[(2R)-2-methyl-1-pyrrolidinyl]ethyl}-1-benzofuran-5-yl)phenyl]ethanone O-methyloxime] gave an inhibitory constant (Ki) of 21 nM.

With `CCON=C(C)c1cccc(-c2ccc3oc(CCN4CCC[C@H]4C)cc3c2)c1` [Example 141, 1-[3-(2-{2-[(2R)-2-methyl-1-pyrrolidinyl]ethyl}-1-benzofuran-5-yl)phenyl]ethanone O-ethyloxime], the Ki is 44 nM.

Turning to `CC(=NOC(C)(C)C)c1cccc(-c2ccc3oc(CCN4CCC[C@H]4C)cc3c2)c1` [Example 142, 1-[3-(2-{2-[(2R)-2-methyl-1-pyrrolidinyl]ethyl}-1-benzofuran-5-yl)phenyl]ethanone O-(tert-butyl)oxime], the Ki is 29 nM.

`CC(C)CC(=O)c1cccc(-c2ccc3oc(CCN4CCC[C@H]4C)cc3c2)c1` [Example 148, 3-methyl-1-[3-(2-{2-[(2R)-2-methyl-1-pyrrolidinyl]ethyl}-1-benzofuran-5-yl)phenyl]-1-butanone] came in with a Ki of 19 nM.

On to `C[C@@H]1CCCN1CCc1cc2cc(-c3cccc(C=O)c3)ccc2o1` [Example 149, 3-(2-{2-[(2R)-2-methyl-1-pyrrolidinyl]ethyl}-1-benzofuran-5-yl)benzaldehyde], for which the Ki was found to be 3.3 nM.

For `C[C@@H]1CCCN1CCc1cc2cc(-c3cccc(C(=O)c4cccs4)c3)ccc2o1` [Example 150, [3-(2-{2-[(2R)-2-methyl-1-pyrrolidinyl]ethyl}-1-benzofuran-5-yl)phenyl](2-thienyl)methanone], affinity was put at a Ki of 3.6 nM.

Source of the values: US6969730B2, “Amines as histamine-3 receptor ligands and their therapeutic applications” (Abbott Laboratories, priority 2001, dated 2005).
